Laboratory results taken from patent publication US20050004000A1, “Oral absorbed drugs” (priority 2001, published 2005).
Like-named read-outs stand apart in the source and are kept apart here.

How the values were obtained:
F10.9 melanoma cell line = assay: Inhibition of proliferation of cancer cells in vitro, crystal violet staining; assay type: cell-based; conditions: F10.9 melanoma cells, 96 hours, crystal violet staining (FIG. 2); read-out: IC50 (the concentration at which cell growth is inhibited by 50%)
Procedure: (§1) The efficacy of native Dox and FMS-Dox on the inhibition of proliferation of cancer cells was tested in vitro with F10.9 melanoma cell line. On day (−1) cells, were seeded in a 24-well plate (5×10^3 cells/ml/well). On day (0), cells were incubated with Dox and FMS-Dox at logarithmic dilutions from 100 μM to 0.001 μM. Survival of cells at 96 hours was determined, using the crystal violet staining method. Optical density (OD) was measured at 620 nm in an ELISA reader. The OD reading was correlated to % viable cells. When the cells were untreated the absorbance was at a maximum. IC50 (the concentration at which cell growth is inhibited by 50%) was determined. The results in FIG. 2 show IC50 values of 0.03 μM and 0.09 μM for native Dox and FMS-Dox, respectively. […] The was confirmed by HPLC analysis whereby the compound found in the growing cell medium after 96 hr corresponded to native doxorubicin.

[1] = HPLC analysis of growing cell medium (cleavage of Fms-Dox); assay type: in vitro ADME; conditions: growing cell medium after 96 hr
Procedure: as §1

[2] = tested on: acetylcholine-induced abdominal constriction; assay: Acetylcholine-induced abdominal constriction in mice (antinociceptive activity); assay type: in vivo; conditions: for inhibition of acetylcholine-induced abdominal constriction, dose response (FIG. 3): 30 minutes after SC, Fmoc-Met-enkephalin 50 and 25 mg/kg, p<0.05; for inhibition of acetylcholine-induced abdominal constriction, dose response (FIG. 3) / activity after SC or PO administration: Met-enkephalin 50 mg/kg; for activity after SC or PO administration: Fmoc-Ala 25 mg/kg; for antinociceptive activity in the mouse: comparable doses; for activity after SC or PO administration / antinociceptive activity in the mouse: SC or PO
From the text: The method used in the experiments herein for evaluating the antinociceptive properties of Fmoc-Met-enkephalin is a standard method for evaluating compounds having analgesic activity such as non-steroidal anti-inflammatory agents, opioids, and other analgesics, and consists in administering acetylcholine I.P. to mice, treating the mice with the test compound and evaluating the inhibition of abdominal constriction induced by the acetylcholine.
Thus, 120 healthy CD-1, Swiss derived, albino male mice (obtained from Charles River Breeding Labs, Wilmington, Mass.) were weighed, examined for health and equally distributed into one of the 12 test groups shown in Table 1.
SC administration was carried out with a standard syrine and needle and given in a volume of 10 ml per kg. Oral administration was performed using a standard curved oval gavage needle and given in a volume of 10 ml per kg. Thirty minutes after administration of the appropriate treatment, acetylcholine (5.5 mg/kg) was injected I.P. The mice were then placed in large plastic boxes and observed for the occurrence of a single abdominal constriction (defined as a wave of construction and elongation passing caudally along the abdominal wall, accompanied by a twisting of the trunk and followed by extension of the hind limbs). […] Acetylcholine-induced abdominal constriction was repeated again at approximately 120 minutes after test compound administration.
Observations included gross evaluation of the skin and fur, eyes and mucous membranes, respiratory, circulatory, autonomic and central nervous system, somatomotor activity and behavioral patterns. Particular attention was directed to observation of tremors, convulsions, salivation, diarrhea, sleep and coma. A non-parametric analysis of quantal data (Fisher exact test) was used to determine statistical significance of results.

[3] = tested on: luteinizing hormone (LH) in circulating blood; assay: Effect of GnRH analogs on LH levels in blood of rats (RIA); assay type: in vivo, rat; parameters: LH 180 min: unit not given here
Procedure: The experiment was carried out with 55 female Wistar 8-week old rates, equally distributed into one of the eleven test groups as detailed in the following Table 3:
The compounds were administered either orally (PO) or intraperitoneally (IP) in a molar concentration of 0.4 nmol/rat (equivalent to 0.5 μg/rat of D-Lys^6-GnRH and to 0.6 μg/rat of Fms- or Fmoc-D-Lys^6-GnRH), or of 40 nmol/rat (equivalent in 50 μg/rat of D-Lys^6-GnRH and to 60 μg/rat of Fms- or Fmoc-D-Lys^6-GnRH), in 0.5 ml PBS. Ninety and 180 minutes after administration of the appropriate treatment, blood samples were collected (1 ml), the serum was separated, and the detection of LH levels was carried out by radioimmunoassay (RIA) as previously described (Rahimipour, S., et Al. J. Med. Chem. 2001, 44, 3645-3652).

[4] = tested on: Escherichia coli (E. coli strain N-4156-W.T); assay: Antibacterial potency: E. coli replication, absorbance at 600 nm; assay type: cell-based; conditions: 37° C., L.B. medium, O.D. 600 nm
Procedure: A suspension of Escherichia coli (E. coli strain N-4156-W.T, 1% V/V in L.B. medium) is divided into plastic tubes (0.5 ml per tube) and incubated in a shaking water bath at 37° C., in either the absence or the presence of increasing concentrations of gentamicin (0.02-50 μM) and increasing concentrations of (Fms)3-gentamicin (0.02-50 μM). E. coli replication is evaluated by measuring the absorbance at 600 nm. Incubation is terminated when O.D600 nm in the tubes containing no gentamicin reaches a value of 0.6±0.1. Under our assay conditions, native gentamicin inhibited half-maximally E. coli replication at a concentration of 0.22±0.02 μM (0.1 μg/ml).

Candida albicans = conditions: 20 IU; Agar-RPMI plates confluent with Candida albicans, 48 hr at 30° C.; cited from earlier work
[5] = rats; Dox 10 μg/g, Fms-Dox 15 μg/g I.P.
Procedure: (§2) The experiment was carried out with a single mice or rat per compound (per metabolic cage) and it was repeated 7 times with rats and twice with mice using the protocol below. The fluorescent feature of doxorubicin enables the observation of its presence in the urine following different modes of administration.
Urine was collected several times after administration and the fluorescence emission was measured by a fluorometer. The urine collected from the untreated groups was used as a blank.
Urine was collected at 1.25, 2.5, 4 and 6 hours after administration and fluorescence intensity was measured in a fluorometer (SPECTRAmax and GEMINI of Molecular Devices Sunnyvale Fluorometer, CA, USA). Since doxorubicin is a fluorescent material, when it absorbs light energy at a wavelength of 488 nm (excitation), it undergoes an electronic state change and instantaneously emits light at 595 nm (emission). The Relative Fluorescence Units (RFU) shown in FIG. 1 indicate the peaks of light emitted at 595 nm resulting from the absorption of Dox at 488 nm.

[6] = Procedure: as §2
The experiments were repeated with mice.

[7] = 0.4 nmol/rat (0.5 or 0.6 μg/rat) IP
[8] = 0.4 nmol/rat (0.5 or 0.6 μg/rat) PO
[9] = 40 nmol/rat (50 or 60 μg/rat) PO

In the case of Fms-doxorubicin, the IC50 (F10.9 melanoma cell line) is reported as 90 nM and the “cleavage in the cell medium (HPLC analysis)” value [1] is reported as “full recovery of the native doxorubicin”.

In the case of “Tyr-Gly-Gly-Phe-Met [Met-Enk, reference compound]”, the “# mice abdominal construction” value ([2]; 50 mg/kg PO, 30 minutes) is reported as 9/10, the “% inhibition” value ([2]; 50 mg/kg PO, 30 minutes) is reported as 10% and the “# mice abdominal construction” value ([2]; 50 mg/kg PO, 120 minutes) is reported as 9/10. For the same molecule, the “% inhibition” value ([2]; 50 mg/kg PO, 120 minutes) was 10%, the “# mice abdominal construction” value ([2]; 50 mg/kg SC, 30 minutes) was 8/10 and the “% inhibition” value ([2]; 50 mg/kg SC, 30 minutes) was 20%. The “# mice abdominal construction” value ([2]; 50 mg/kg SC, 120 minutes) was 10/10, the “inhibition of acetylcholine-induced abdominal constriction, dose response (FIG. 3)” value [2] was “not significantly active” and the “activity after SC or PO administration” value [2] was “not active”. For the same molecule, the “antinociceptive activity in the mouse” value [2] was “neither Met-enkephalin nor Fmoc-Ala is active”.

With “5-oxo-Pro-His-Trp-Ser-Tyr-(Fmoc)D-Lys-Leu-Arg-Pro-Gly-NH2 [Fmoc-D-Lys^6-GnRH]” the “LH 90 min” value [3, 7] was 50 ng/mL, the “LH 180 min” value [3, 7] was 17 and the “LH 90 min” value [3, 8] was 0 ng/mL. The “LH 180 min” value [3, 8] was 0, the “LH 90 min” value [3, 9] was 0 ng/mL and the “LH 180 min” value [3, 9] was 0. The “activity when administered IP” value [3] was “active”.

For “5-oxo-Pro-His-Trp-Ser-Tyr-(Fms)D-Lys-Leu-Arg-Pro-Gly-NH2 [Fms-D-Lys^6-GnRH]”, the “LH 90 min” value [3, 7] was 80 ng/mL, the “LH 180 min” value [3, 7] was 25 and the “LH 90 min” value [3, 8] was 0.4 ng/mL. The “LH 180 min” value [3, 8] was 0, the “LH 90 min” value [3, 9] was 80 ng/mL and the “LH 180 min” value [3, 9] was 35. The “activity when administered IP” value [3] was “active” and the “effect of oral administration on LH levels in the blood circulation” value ([3]; oral, 90 and 180 min after administration) was “elevation of the LH levels”.

With `C[C@H](NC(=O)OCC1c2ccccc2-c2ccccc21)C(=O)O` [Fmoc-Ala, reference compound] the “# mice abdominal construction” value ([2]; 25 mg/kg PO, 30 minutes) was 10/10, the “# mice abdominal construction” value ([2]; 25 mg/kg PO, 120 minutes) was 8/10 and the “% inhibition” value ([2]; 25 mg/kg PO, 120 minutes) was 20%. The “# mice abdominal construction” value ([2]; 25 mg/kg SC, 30 minutes) was 10/10, the “# mice abdominal construction” value ([2]; 25 mg/kg SC, 120 minutes) was 10/10 and the “activity after SC or PO administration” value [2] was “not active”. For the same molecule, the “antinociceptive activity in the mouse” value [2] was “neither Met-enkephalin nor Fmoc-Ala is active”.

With gentamicin [native gentamicin] the “concentration inhibiting half-maximally E. coli replication” value [4] was 0.1 µg/mL and the IC50 ([4]; read-out: concentration inhibiting half-maximally E. coli replication) was 220 ± 20 nM.

With (X1)Tyr-Gly-Gly-Phe-Met [Fmoc-Met-Enk] the “# mice abdominal construction” value ([2]; 6.25 mg/kg SC, 30 minutes) was 9/10, the “% inhibition” value ([2]; 6.25 mg/kg SC, 30 minutes) was 10% and the “# mice abdominal construction” value ([2]; 6.25 mg/kg SC, 120 minutes) was 8/10. For the same molecule, the “% inhibition” value ([2]; 6.25 mg/kg SC, 120 minutes) was 20%, the “# mice abdominal construction” value ([2]; 12.5 mg/kg PO, 30 minutes) was 6/10 and the “% inhibition” value ([2]; 12.5 mg/kg PO, 30 minutes) was 40%. For the same molecule, the “# mice abdominal construction” value ([2]; 12.5 mg/kg PO, 120 minutes) was 10/10, the “# mice abdominal construction” value ([2]; 12.5 mg/kg SC, 30 minutes) was 7/10 and the “% inhibition” value ([2]; 12.5 mg/kg SC, 30 minutes) was 30%. For the same molecule, the “# mice abdominal construction” value ([2]; 12.5 mg/kg SC, 120 minutes) was 8/10, the “% inhibition” value ([2]; 12.5 mg/kg SC, 120 minutes) was 20% and the “# mice abdominal construction” value ([2]; 25 mg/kg PO, 30 minutes) was 6/10. For the same molecule, the “% inhibition” value ([2]; 25 mg/kg PO, 30 minutes) was 40%, the “# mice abdominal construction” value ([2]; 25 mg/kg PO, 120 minutes) was 10/10 and the “# mice abdominal construction” value ([2]; 25 mg/kg SC, 30 minutes) was 6/10. The “% inhibition” value ([2]; 25 mg/kg SC, 30 minutes) was 40%, the “# mice abdominal construction” value ([2]; 25 mg/kg SC, 120 minutes) was 6/10 and the “% inhibition” value ([2]; 25 mg/kg SC, 120 minutes) was 40%. For the same molecule, the “activity at 120 minutes after drug administration” value ([2]; 25 mg/kg SC, 120 minutes) was “active”, the “# mice abdominal construction” value ([2]; 50 mg/kg PO, 30 minutes) was 8/10 and the “% inhibition” value ([2]; 50 mg/kg PO, 30 minutes) was 20%. The “# mice abdominal construction” value ([2]; 50 mg/kg PO, 120 minutes) was 6/10, the “% inhibition” value ([2]; 50 mg/kg PO, 120 minutes) was 40% and the “# mice abdominal construction” value ([2]; 50 mg/kg SC, 30 minutes) was 5/10. The “% inhibition” value ([2]; 50 mg/kg SC, 30 minutes) was 50%, the “# mice abdominal construction” value ([2]; 50 mg/kg SC, 120 minutes) was 9/10 and the “% inhibition” value ([2]; 50 mg/kg SC, 120 minutes) was 10%. The “inhibition of acetylcholine-induced abdominal constriction (statistical significance)” value ([2]; 50 and 25 mg/kg SC and 25 and 12.5 mg/kg PO, 30 minutes) was “statistically significant inhibition”, the “inhibition of acetylcholine-induced abdominal constriction, dose response (FIG. 3)” value [2] was “statistically significant” and the “antinociceptive activity in the mouse” value [2] was “significant antinociceptive activity”. The “signs of CNS depression or sedation” value ([2]; mice, during the experimental period) was “did not show signs of CNS depression or sedation”, the “statistically significant activity compared to Fmoc-Ala” value ([2]; oral administration, any dose, 120 minutes) was “did not show statistically significant activity” and the “inhibition of acetylcholine-induced abdominal constriction after oral administration (FIG. 4)” value ([2]; orally, 25 and 12.5 mg/kg after 30 minutes and 50 mg/kg after 120 minutes) was “statistically significant inhibition”.

For `C[C@@H]1[C@H](O)[C@@H](C)/C=C/C=C/C=C/C=C/C=C/C=C/C=C/[C@H](O[C@@H]2O[C@H](C)[C@@H](O)[C@H](N)[C@@H]2O)C[C@@H]2O[C@](O)(C[C@@H](O)C[C@@H](O)[C@H](O)CC[C@@H](O)C[C@@H](O)CC(=O)O[C@H]1C)C[C@H](O)[C@H]2C(=O)O` [native Amphotericin B, Amphotericin B], the clear zone diameter (Candida albicans) is given as 1.5 cm.

In the case of `COc1cccc2c1C(=O)c1c(O)c3c(c(O)c1C2=O)C[C@@](O)(C(=O)CO)C[C@@H]3O[C@H]1C[C@H](N)[C@H](O)[C@H](C)O1` [native Dox, Doxorubicin], the “absorption following I.P. administration (urine fluorescence)” value [5] is reported as “absorbed”, the “absorption following I.P. administration (urine fluorescence)” value ([6]; mice, I.P.) is reported as “absorbed” and the “oral absorption (urine fluorescence)” value ([6]; mouse, in vivo, po) is reported as “orally nonabsorbed”. It also gave an IC50 (F10.9 melanoma cell line) of 30 nM.
